According to the NIST ThermoML archive (doi:10.1016/j.fluid.2005.06.024):
± gives the expanded uncertainty stated by the source. Values belong to the compound of their own block, whether it stands above or below them.

How the values were obtained:
[1] = 298.15 K; 101.3 kPa; Liquid
[2] = xn = mol fraction of the nth substance listed; details: 298.15 K, 101.3 kPa, Liquid

SMILES: CCC(C)=O [butanone]
mass density [1]: 799.7 ± 0.35 kg/m3 | speed of sound [1]: 1192 ± 2 m/s

SMILES: CC(C)=O [acetone] + CCOC(=O)OCC
mass density ([2]; x1 = 1): 784.37 ± 0.31 kg/m3 | speed of sound ([2]; x1 = 1): 1162 ± 2 m/s

mass density ([2]; x1 = 0.0483): 962.08 ± 0.27 kg/m3 | speed of sound ([2]; x1 = 0.0483): 1179 ± 2 m/s | mass density ([2]; x1 = 0.0983): 954.6 ± 0.28 kg/m3 | speed of sound ([2]; x1 = 0.0983): 1180 ± 2 m/s | mass density ([2]; x1 = 0.1923): 940.27 ± 0.28 kg/m3 | speed of sound ([2]; x1 = 0.1923): 1183 ± 2 m/s | mass density ([2]; x1 = 0.2988): 923.61 ± 0.29 kg/m3 | speed of sound ([2]; x1 = 0.2988): 1187 ± 2 m/s | mass density ([2]; x1 = 0.3998): 907.38 ± 0.3 kg/m3 | speed of sound ([2]; x1 = 0.3998): 1190 ± 2 m/s | mass density ([2]; x1 = 0.4996): 890.92 ± 0.31 kg/m3 | speed of sound ([2]; x1 = 0.4996): 1193 ± 2 m/s | mass density ([2]; x1 = 0.6034): 873.34 ± 0.31 kg/m3 | speed of sound ([2]; x1 = 0.6034): 1197 ± 2 m/s | mass density ([2]; x1 = 0.7077): 855.18 ± 0.32 kg/m3 | speed of sound ([2]; x1 = 0.7077): 1201 ± 2 m/s | mass density ([2]; x1 = 0.8037): 838 ± 0.33 kg/m3 | speed of sound ([2]; x1 = 0.8037): 1204 ± 2 m/s | mass density ([2]; x1 = 0.9026): 819.83 ± 0.34 kg/m3 | speed of sound ([2]; x1 = 0.9026): 1208 ± 2 m/s | mass density ([2]; x1 = 0.9491): 811.1 ± 0.34 kg/m3 | speed of sound ([2]; x1 = 0.9491): 1210 ± 2 m/s | mass density ([2]; x1 = 1): 801.39 ± 0.35 kg/m3 | speed of sound ([2]; x1 = 1): 1212 ± 2 m/s
SMILES: CCCC(C)=O [pentan-2-one] + CCOC(=O)OCC

SMILES: CCOC(=O)OCC [diethyl carbonate] + CC(C)=O
mass density ([2]; x2 = 0): 969.24 ± 0.27 kg/m3 | speed of sound ([2]; x2 = 0): 1178 ± 2 m/s | mass density ([2]; x2 = 0.0384): 964.96 ± 0.27 kg/m3 | speed of sound ([2]; x2 = 0.0384): 1177 ± 2 m/s | mass density ([2]; x2 = 0.0901): 959 ± 0.26 kg/m3 | speed of sound ([2]; x2 = 0.0901): 1176 ± 2 m/s | mass density ([2]; x2 = 0.1832): 947.54 ± 0.26 kg/m3 | speed of sound ([2]; x2 = 0.1832): 1175 ± 2 m/s | mass density ([2]; x2 = 0.2827): 934.21 ± 0.25 kg/m3 | speed of sound ([2]; x2 = 0.2827): 1173 ± 2 m/s | mass density ([2]; x2 = 0.3847): 919.29 ± 0.25 kg/m3 | speed of sound ([2]; x2 = 0.3847): 1171 ± 2 m/s | mass density ([2]; x2 = 0.4847): 903.08 ± 0.26 kg/m3 | speed of sound ([2]; x2 = 0.4847): 1170 ± 2 m/s | mass density ([2]; x2 = 0.5888): 884.33 ± 0.26 kg/m3 | speed of sound ([2]; x2 = 0.5888): 1168 ± 2 m/s | mass density ([2]; x2 = 0.6936): 863.26 ± 0.26 kg/m3 | speed of sound ([2]; x2 = 0.6936): 1166 ± 2 m/s | mass density ([2]; x2 = 0.7967): 839.9 ± 0.27 kg/m3 | speed of sound ([2]; x2 = 0.7967): 1164 ± 2 m/s | mass density ([2]; x2 = 0.9017): 813 ± 0.29 kg/m3 | speed of sound ([2]; x2 = 0.9017): 1162 ± 2 m/s | mass density ([2]; x2 = 0.9546): 798.07 ± 0.3 kg/m3 | speed of sound ([2]; x2 = 0.9546): 1162 ± 2 m/s

SMILES: CC(C)=O [acetone]
mass density [1]: 784.37 ± 0.31 kg/m3 | speed of sound [1]: 1162 ± 2 m/s

SMILES: CCOC(=O)OCC [diethyl carbonate] + CCC(C)=O
mass density ([2]; x2 = 0): 969.24 ± 0.27 kg/m3 | speed of sound ([2]; x2 = 0): 1178 ± 2 m/s | mass density ([2]; x2 = 0.0486): 963.14 ± 0.27 kg/m3 | speed of sound ([2]; x2 = 0.0486): 1178 ± 2 m/s | mass density ([2]; x2 = 0.1002): 956.52 ± 0.28 kg/m3 | speed of sound ([2]; x2 = 0.1002): 1179 ± 2 m/s | mass density ([2]; x2 = 0.1958): 943.68 ± 0.28 kg/m3 | speed of sound ([2]; x2 = 0.1958): 1180 ± 2 m/s | mass density ([2]; x2 = 0.2977): 929.22 ± 0.29 kg/m3 | speed of sound ([2]; x2 = 0.2977): 1181 ± 2 m/s | mass density ([2]; x2 = 0.399): 913.95 ± 0.29 kg/m3 | speed of sound ([2]; x2 = 0.399): 1182 ± 2 m/s | mass density ([2]; x2 = 0.4976): 898.2 ± 0.31 kg/m3 | speed of sound ([2]; x2 = 0.4976): 1184 ± 2 m/s | mass density ([2]; x2 = 0.6444): 872.87 ± 0.31 kg/m3 | speed of sound ([2]; x2 = 0.6444): 1186 ± 2 m/s | mass density ([2]; x2 = 0.7172): 859.36 ± 0.32 kg/m3 | speed of sound ([2]; x2 = 0.7172): 1187 ± 2 m/s | mass density ([2]; x2 = 0.8294): 837.19 ± 0.33 kg/m3 | speed of sound ([2]; x2 = 0.8294): 1189 ± 2 m/s | mass density ([2]; x2 = 0.9031): 821.58 ± 0.34 kg/m3 | speed of sound ([2]; x2 = 0.9031): 1190 ± 2 m/s | mass density ([2]; x2 = 0.9554): 810.05 ± 0.34 kg/m3 | speed of sound ([2]; x2 = 0.9554): 1191 ± 2 m/s

SMILES: CCC(C)=O [butanone] + CCOC(=O)OCC
mass density ([2]; x1 = 1): 799.7 ± 0.35 kg/m3 | speed of sound ([2]; x1 = 1): 1192 ± 2 m/s

mass density [1]: 801.39 ± 0.35 kg/m3 | speed of sound [1]: 1212 ± 2 m/s
SMILES: CCCC(C)=O [pentan-2-one]

SMILES: CCOC(=O)OCC [diethyl carbonate] + CCCC(C)=O
mass density ([2]; x2 = 0): 969.24 ± 0.27 kg/m3 | speed of sound ([2]; x2 = 0): 1178 ± 2 m/s

SMILES: CCOC(=O)OCC [diethyl carbonate]
mass density [1]: 969.24 ± 0.27 kg/m3 | speed of sound [1]: 1178 ± 2 m/s
